{"source": "paper PMC7830877", "about": "“Possibility to Biotransform Anthracyclines by Peroxidases Produced by Bjerkandera adusta CCBAS 930 with Reduction of Geno- and Cytotoxicity and Pro-Oxidative Activity” (Molecules, 2021)", "key": {"[1]": {"system": "B. adusta CCBAS 930", "test": "Free radical (SOR) content in B. adusta CCBAS 930 cultures (NBT)", "parameters": "species or system Bjerkandera adusta", "method": "The content of PhC was determined spectrophotometrically at A740nm according to Singleton and Rossi (1965) with a slight modification. SOR levels were estimated based on the detection of superoxide-induced formazan formation from nitrotetrazolium blue (NBT) (A560nm). Untreated medium with DNR or DOX at a concentration of 10 µg/mL was used as control."}, "[2]": {"system": "BJ fibroblasts", "test": "Resazurin reduction assay", "assay_type": "cell-based, human", "conditions": "BJ cells, medium with initial solution", "method": "The human skin fibroblasts cell line BJ (ATCC CRL-2522) was obtained from American Type Culture Collection (ATCC, distributors: LGC Standards, Łomianki, Poland). BJ cells were maintained in MEM medium without phenol red supplemented with 10% fetal bovine serum (FBS). Cells were maintained at 37 °C in a humidified atmosphere with 5% CO2. Cells were seeded in 96-well culture plates (Costar, St. Louis, MO, USA) at a density of 5 × 10^3 per well and initially cultured before the experiment for 24 h. […] The resazurin reduction cell viability and metabolism assay was performed according to a previously described method. On the day of analysis, a working solution of 60 µM resazurin was prepared in medium containing 1% FBS. […] Fluorescence was measured with an excitation wavelength of 530 nm and emission 590 nm on a FilterMax F5 Multi-Mode microplate reader (Molecular Devices, Corp., Sunnyvale, CA, USA) for 1 and 2 h after dye addition."}, "[3]": {"system": "BJ fibroblasts", "test": "Calcein AM staining", "assay_type": "cell-based, human", "conditions": "BJ cells; 24 and 48 h; parent vs Control 1, metabolite vs parent", "method": "The human skin fibroblasts cell line BJ (ATCC CRL-2522) was obtained from American Type Culture Collection (ATCC, distributors: LGC Standards, Łomianki, Poland). BJ cells were maintained in MEM medium without phenol red supplemented with 10% fetal bovine serum (FBS). Cells were maintained at 37 °C in a humidified atmosphere with 5% CO2. Cells were seeded in 96-well culture plates (Costar, St. Louis, MO, USA) at a density of 5 × 10^3 per well and initially cultured before the experiment for 24 h."}, "[4]": {"system": "V. fischeri", "test": "Ecotoxicity assay (Microtox)", "assay_type": "cell-based, Vibrio fischeri", "conditions": "initial media 10 µg/mL or decolorized post-culture fluids"}, "[5]": {"system": "caspase-3 activity in BJ fibroblasts", "test": "Caspase-3 activity", "assay_type": "cell-based, human", "conditions": "BJ cells; 24 h; medium with initial solutions", "method": "The human skin fibroblasts cell line BJ (ATCC CRL-2522) was obtained from American Type Culture Collection (ATCC, distributors: LGC Standards, Łomianki, Poland). BJ cells were maintained in MEM medium without phenol red supplemented with 10% fetal bovine serum (FBS). Cells were maintained at 37 °C in a humidified atmosphere with 5% CO2. Cells were seeded in 96-well culture plates (Costar, St. Louis, MO, USA) at a density of 5 × 10^3 per well and initially cultured before the experiment for 24 h. […] Caspase-3 activity was assessed according to previous described method Nicholson et al. After 24 or 48 h of treatment with studied media culture plates were frozen in −80 °C and kept until assay. […] The lysates were incubated with substrate Ac-DEVD-pNA for caspase-3 at 37 °C. Cells treated with 1 μM staurosporine were used as a positive control (results not shown). After 30 min, absorbance of the lysates at 405 nm was measured using a microplate reader (FilterMax F5 Multi-Mode microplate reader). The amount of colorimetric product was continuously monitored for 120 min. The data were analyzed using Multi-Mode Analysis software (Molecular Devices, Corp., Sunnyvale, CA, USA)."}, "[6]": {"test": "DPPH radical scavenging assay", "assay_type": "physicochemical", "conditions": "initial solutions 10 µg/mL", "method": "Antioxidant activity was measured using the DPPH^• radical scavenging assay according to Brand-Williams et al. (1995). Each 100 μL of post-culture fluids and initial DNR and DOX (10 μg/mL) solutions were mixed with 100 μL of […] DPPH^• solution in 96% ethanol. Following 30 min incubation at room temperature, sample absorbance was measured […]) using 96% ethanol as a blank sample."}, "[7]": {"parameters": "method as in PMID 17867890", "conditions": "SOS Chromotest, cited from earlier work"}, "[8]": {"system": "bacteria", "test": "Genotoxicity assay (SOS ChromoTest)", "conditions": "before treatment"}, "[9]": {"system": "BJ fibroblasts", "test": "ROS production (H2DCFDA)", "assay_type": "cell-based, human", "conditions": "BJ cells", "method": "The human skin fibroblasts cell line BJ (ATCC CRL-2522) was obtained from American Type Culture Collection (ATCC, distributors: LGC Standards, Łomianki, Poland). BJ cells were maintained in MEM medium without phenol red supplemented with 10% fetal bovine serum (FBS). Cells were maintained at 37 °C in a humidified atmosphere with 5% CO2. Cells were seeded in 96-well culture plates (Costar, St. Louis, MO, USA) at a density of 5 × 10^3 per well and initially cultured before the experiment for 24 h. […] The ROS measurement was performed according to a previously described method. […] The cells were incubated in H2DCFDA in serum-free and phenol red-free medium for 45 min before conditioned medium treatment. After 24 and 48 h of incubation of the cells with increasing concentrations of compounds (5% CO2 at 37 °C), the culture medium was replaced with fresh medium to remove extracellular residual DCF and studied compounds to reduce the fluorescence background. Cells treated with 0.3% hydrogen peroxide (H2O2) were used as a positive control (result not shown)."}}, "note": "Where two headings read alike, the source gives them in different places.", "data": [{"smiles": "COc1cccc2c1C(=O)c1c(O)c3c(c(O)c1C2=O)C[C@@](O)(C(=O)CO)C[C@@H]3O[C@H]1C[C@H](N)[C@H](O)[C@H](C)O1", "note": "[DOX, doxorubicin]", "values": [{"measurement": "decrease in the content of free radicals", "setting": "[1]", "value": 90.70, "unit": "%"}, {"measurement": "decrease in resazurin reduction compared to Control 1", "setting": "[2]; 24 h", "value": 50.36, "unit": "%"}, {"measurement": "decrease in resazurin reduction compared to Control 1", "setting": "[2]; 48 h", "value": 40.36, "unit": "%"}, {"measurement": "cell number (calcein AM staining)", "setting": "[3]", "value": "decrease in cell number"}, {"measurement": "toxicity units (TU)", "setting": "[4]", "value": "1.90 ± 0.13"}, {"measurement": "caspase-3 activity", "setting": "[5]", "value": "not affected"}, {"measurement": "antioxidant activity (DPPH scavenging)", "setting": "[6]", "value": "did not show any antioxidant activity"}, {"measurement": "concentration exhibiting genotoxic properties", "setting": "[7]; with metabolic activation", "value": 98, "unit": "ng/mL"}, {"measurement": "concentration exhibiting genotoxic properties", "setting": "[7]; without metabolic activation", "value": 74, "unit": "ng/mL"}, {"measurement": "CIF (corrected induction factor)", "setting": "[8]; C 0.15 µg mL^−1", "value": 2.88}, {"measurement": "CIF (corrected induction factor)", "setting": "[8]; C 0.31 µg mL^−1", "value": 1.21}, {"measurement": "CIF (corrected induction factor)", "setting": "[8]; C 0.62 µg mL^−1", "value": 1.23}, {"measurement": "CIF (corrected induction factor)", "setting": "[8]; C 1.25 µg mL^−1", "value": 2.53}, {"measurement": "CIF (corrected induction factor)", "setting": "[8]; C 2.50 µg mL^−1", "value": 3.27}, {"measurement": "CIF (corrected induction factor)", "setting": "[8]; C 5 µg mL^−1", "value": 3.70}, {"measurement": "CIF (corrected induction factor)", "setting": "[8]; C 10 µg mL^−1", "value": 9.58}, {"measurement": "ROS production induced compared to Control 1", "setting": "[9]; 24 h", "value": 680.22, "unit": "%"}, {"measurement": "ROS production induced compared to Control 1", "setting": "[9]; 48 h", "value": 457.34, "unit": "%"}]}, {"smiles": "COc1cccc2c1C(=O)c1c(O)c3c(c(O)c1C2=O)C[C@@](O)(C(C)=O)C[C@@H]3O[C@H]1C[C@H](N)[C@H](O)[C@H](C)O1", "note": "[DNR, daunomycin]", "values": [{"measurement": "decrease in the content of free radicals", "setting": "[1]", "value": 90.30, "unit": "%"}, {"measurement": "decrease in resazurin reduction compared to Control 1", "setting": "[2]; 24 h", "value": 48.49, "unit": "%"}, {"measurement": "decrease in resazurin reduction compared to Control 1", "setting": "[2]; 48 h", "value": 48.40, "unit": "%"}, {"measurement": "cell number (calcein AM staining)", "setting": "[3]", "value": "decrease in cell number"}, {"measurement": "toxicity units (TU)", "setting": "[4]", "value": "1.79 ± 0.09"}, {"measurement": "caspase-3 activity", "setting": "[5]", "value": "not affected"}, {"measurement": "antioxidant activity (DPPH scavenging)", "setting": "[6]", "value": "did not show any antioxidant activity"}, {"measurement": "CIF (corrected induction factor)", "setting": "[8]; C 0.15 µg mL^−1", "value": 2.50}, {"measurement": "CIF (corrected induction factor)", "setting": "[8]; C 0.31 µg mL^−1", "value": 1.60}, {"measurement": "CIF (corrected induction factor)", "setting": "[8]; C 0.62 µg mL^−1", "value": 1.21}, {"measurement": "CIF (corrected induction factor)", "setting": "[8]; C 1.25 µg mL^−1", "value": 1.54}, {"measurement": "CIF (corrected induction factor)", "setting": "[8]; C 2.50 µg mL^−1", "value": 2.80}, {"measurement": "CIF (corrected induction factor)", "setting": "[8]; C 5 µg mL^−1", "value": 5.68}, {"measurement": "CIF (corrected induction factor)", "setting": "[8]; C 10 µg mL^−1", "value": 13.42}, {"measurement": "ROS production induced compared to Control 1", "setting": "[9]; 24 h", "value": 625.72, "unit": "%"}, {"measurement": "ROS production induced compared to Control 1", "setting": "[9]; 48 h", "value": 372.97, "unit": "%"}]}]}
